The values that follow are results of earlier work, collected in patent US8318452B2, “Solid culture medium for the detection and/or the species discrimination of glycopeptide-resistant enterococci” (priority 2006, dated 2012).

As a reminder, the MIC is the smallest concentration in the dilution series that meets the test's criterion for growth inhibition.

The test system of series [1] is VanB type glycopeptide-resistant enterococci. Conditions: Type of glycopeptide resistance VanB.
The test system of series [2] is VanC type glycopeptide-resistant enterococci. Conditions: Type of glycopeptide resistance VanC.

On to teicoplanin, for which the MIC in series [1] and in series [2] was 0.5 to 1 µg/mL in each case.
